From PMC5218480 (PLoS ONE, 2017)

System: MV-4-11 cells
Experiment: Gene expression microarray analysis (Affymetrix PrimeView) and GSEA
Format: cell-based, human
Design: RFU PODN (11730768_x_at) / Fold change /veh PODN (11730768_x_at) / RFU LINC00158 (11744669_a_at) / Fold change /veh LINC00158 (11744669_a_at) / RFU DUSP10 (11751237_a_at) / Fold change /veh DUSP10 (11751237_a_at) / RFU ID3 (11757404_x_at) / Fold change /veh ID3 (11757404_x_at) / RFU PLEKHG5 (11737974_s_at) / Fold change /veh PLEKHG5 (11737974_s_at) / RFU LRRC4B (11730491_at) / Fold change /veh LRRC4B (11730491_at) / RFU GIMAP4 (11747438_a_at) / Fold change /veh GIMAP4 (11747438_a_at) / RFU KRT8 (11758183_x_at) / Fold change /veh KRT8 (11758183_x_at) / RFU CNN1 (11734310_a_at) / Fold change /veh CNN1 (11734310_a_at) / RFU VPS37D (11726825_at) / Fold change /veh VPS37D (11726825_at) / RFU C10orf10 (11716522_x_at) / Fold change /veh C10orf10 (11716522_x_at) / RFU KIR2DL2 /// KIR2DL4 /// KIR2DL5A /// KIR2DL5B /// KIR2DS1 /// KIR2DS2 /// KIR2DS3 /// KIR2DS4 /// KIR3DL3 /// KIR3DL3 /// KIR3DS1 (11738374_at) / Fold change /veh KIR2DL2 /// KIR2DL4 /// KIR2DL5A /// KIR2DL5B /// KIR2DS1 /// KIR2DS2 /// KIR2DS3 /// KIR2DS4 /// KIR3DL3 /// KIR3DL3 /// KIR3DS1 (11738374_at) / RFU C1QL1 (11718748_at) / Fold change /veh C1QL1 (11718748_at) / RFU TMPRSS4 (11747572_a_at) / Fold change /veh TMPRSS4 (11747572_a_at) / RFU HAMP (11756126_x_at) / Fold change /veh HAMP (11756126_x_at) / RFU RNFT2 (11725882_a_at) / Fold change /veh RNFT2 (11725882_a_at) / RFU NR4A2 (11747474_a_at) / Fold change /veh NR4A2 (11747474_a_at) / RFU ABCC12 (11746883_a_at) / Fold change /veh ABCC12 (11746883_a_at) / RFU TMEM136 (11760407_x_at) / Fold change /veh TMEM136 (11760407_x_at) / RFU CLDN22 /// WWC2 (11732394_at) / Fold change /veh CLDN22 /// WWC2 (11732394_at) / RFU HLA-DPB1 (11760878_x_at) / Fold change /veh HLA-DPB1 (11760878_x_at) / RFU SPINT1 (11716480_a_at) / Fold change /veh SPINT1 (11716480_a_at) / RFU GAP43 (11754022_s_at) / Fold change /veh GAP43 (11754022_s_at) / RFU A4GNT (11735810_at) / Fold change /veh A4GNT (11735810_at) / RFU PRB3 (11715151_x_at) / Fold change /veh PRB3 (11715151_x_at) / RFU TUBB4B (11761932_at) / Fold change /veh TUBB4B (11761932_at) / RFU CAPN14 (11732068_a_at) / Fold change /veh CAPN14 (11732068_a_at) / RFU TMCC2 (11721928_a_at) / Fold change /veh TMCC2 (11721928_a_at) / RFU IRGQ (11745062_a_at) / Fold change /veh IRGQ (11745062_a_at) / RFU FAM174B (11720279_a_at) / Fold change /veh FAM174B (11720279_a_at) / RFU TMPRSS4 (11748680_a_at) / Fold change /veh TMPRSS4 (11748680_a_at) / RFU FAM212B (11763350_a_at) / Fold change /veh FAM212B (11763350_a_at) / RFU PLEKHG5 (11743358_a_at) / Fold change /veh PLEKHG5 (11743358_a_at) / RFU ZSCAN30 (11745921_a_at) / Fold change /veh ZSCAN30 (11745921_a_at) / RFU CMKLR1 (11741424_a_at) / Fold change /veh CMKLR1 (11741424_a_at) / RFU LOC101060620 /// MAPK8IP1 (11723275_at) / Fold change /veh LOC101060620 /// MAPK8IP1 (11723275_at) / RFU SPTSSB (11747773_x_at) / Fold change /veh SPTSSB (11747773_x_at) / RFU PRSS12 (11739890_at) / Fold change /veh PRSS12 (11739890_at) / RFU BIN1 (11741810_x_at) / Fold change /veh BIN1 (11741810_x_at) / RFU WNT11 (11732464_a_at) / Fold change /veh WNT11 (11732464_a_at) / RFU C10orf10 (11716521_a_at) / Fold change /veh C10orf10 (11716521_a_at) / RFU C5orf56 (11738089_at) / Fold change /veh C5orf56 (11738089_at) / RFU CYB561 (11721691_x_at) / Fold change /veh CYB561 (11721691_x_at) / RFU ANKRD19P (11752326_a_at) / Fold change /veh ANKRD19P (11752326_a_at) / RFU OR2T12 /// OR2T33 /// OR2T8 (11738714_s_at) / Fold change /veh OR2T12 /// OR2T33 /// OR2T8 (11738714_s_at) / RFU VCAN (11748164_a_at) / Fold change /veh VCAN (11748164_a_at) / RFU JSRP1 (11732532_at) / Fold change /veh JSRP1 (11732532_at) / RFU KRTAP10-11 (11738290_x_at) / Fold change /veh KRTAP10-11 (11738290_x_at) / RFU MYO3A (11730013_a_at) / Fold change /veh MYO3A (11730013_a_at) / RFU EBF3 (11725865_a_at) / Fold change /veh EBF3 (11725865_a_at) / RFU CAMK2N1 (11719241_x_at) / Fold change /veh CAMK2N1 (11719241_x_at) / RFU C5orf56 (11738088_a_at) / Fold change /veh C5orf56 (11738088_a_at) / RFU OLFML3 (11715873_a_at) / Fold change /veh OLFML3 (11715873_a_at) / RFU LOC100653217 /// NTM (11731650_a_at) / Fold change /veh LOC100653217 /// NTM (11731650_a_at) / RFU MAPK11 (11762145_a_at) / Fold change /veh MAPK11 (11762145_a_at) / RFU FIZ1 (11724087_x_at) / Fold change /veh FIZ1 (11724087_x_at) / RFU OASL (11726364_x_at) / Fold change /veh OASL (11726364_x_at) / RFU SOX15 (11748057_x_at) / Fold change /veh SOX15 (11748057_x_at) / RFU CD79A (11719716_a_at) / Fold change /veh CD79A (11719716_a_at) / RFU HIST1H1D (11736915_at) / Fold change /veh HIST1H1D (11736915_at) / RFU CASKIN2 (11723855_a_at) / Fold change /veh CASKIN2 (11723855_a_at) / RFU LOC730098 (11760151_x_at) / Fold change /veh LOC730098 (11760151_x_at) / RFU OR4N2 (11742367_at) / Fold change /veh OR4N2 (11742367_at) / RFU PRRT2 (11749266_a_at) / Fold change /veh PRRT2 (11749266_a_at) / RFU SNX32 (11753110_a_at) / Fold change /veh SNX32 (11753110_a_at) / RFU CDHR5 (11726645_a_at) / Fold change /veh CDHR5 (11726645_a_at) / RFU RCAN1 (11760418_a_at) / Fold change /veh RCAN1 (11760418_a_at) / RFU FAM167A (11723789_a_at) / Fold change /veh FAM167A (11723789_a_at) / RFU FAM26E (11764081_at) / Fold change /veh FAM26E (11764081_at) / RFU ISYNA1 (11749810_s_at) / Fold change /veh ISYNA1 (11749810_s_at) / RFU ACY1 (11761880_at) / Fold change /veh ACY1 (11761880_at) / RFU 11764098_at / Fold change /veh 11764098_at / RFU SAMD14 (11745864_x_at) / Fold change /veh SAMD14 (11745864_x_at) / RFU NPB (11741838_a_at) / Fold change /veh NPB (11741838_a_at) / RFU TMPRSS6 (11731388_a_at) / Fold change /veh TMPRSS6 (11731388_a_at) / RFU KRTAP10-2 (11738614_at) / Fold change /veh KRTAP10-2 (11738614_at) / RFU ARHGAP8 /// PRR5-ARHGAP8 (11727945_x_at) / Fold change /veh ARHGAP8 /// PRR5-ARHGAP8 (11727945_x_at) / RFU KRTAP5-7 /// NADSYN1 (11734609_at) / Fold change /veh KRTAP5-7 /// NADSYN1 (11734609_at) / RFU RASL12 (11751679_a_at) / Fold change /veh RASL12 (11751679_a_at) / RFU CDKN2B (11736163_a_at) / Fold change /veh CDKN2B (11736163_a_at) / RFU PRF1 (11729649_at) / Fold change /veh PRF1 (11729649_at) / RFU, ZNF638 /// ZNF638-IT1 / Fold change vs veh, ZNF638 /// ZNF638-IT1 / RFU, PANK3 / Fold change vs veh, PANK3 / RFU, SH3YL1 / Fold change vs veh, SH3YL1 / RFU, ZEB2 / Fold change vs veh, ZEB2 / RFU, NRIP1 / Fold change vs veh, NRIP1 / RFU, PTTG1IP / Fold change vs veh, PTTG1IP / RFU, CAPN2 / Fold change vs veh, CAPN2 / RFU, MED14 / Fold change vs veh, MED14 / RFU, SNORA58 / Fold change vs veh, SNORA58 / RFU, C1orf63 / Fold change vs veh, C1orf63 / RFU, LRRFIP1 / Fold change vs veh, LRRFIP1 / RFU, NDUFAF7 / Fold change vs veh, NDUFAF7 / RFU, SLC12A2 / Fold change vs veh, SLC12A2 / RFU, IBTK / Fold change vs veh, IBTK / RFU, ESF1 / Fold change vs veh, ESF1 / Fold change vs veh, TMEM50B / RFU, TAOK1 / Fold change vs veh, TAOK1 / RFU, ACBD3 / Fold change vs veh, ACBD3 / RFU, TMA16 / Fold change vs veh, TMA16 / RFU, RWDD3 / Fold change vs veh, RWDD3 / RFU, BCAT1 / Fold change vs veh, BCAT1 / RFU, EDEM3 / Fold change vs veh, EDEM3 / RFU, TMEM33 / Fold change vs veh, TMEM33 / RFU, WDR75 / Fold change vs veh, WDR75 / RFU, AHCTF1 / Fold change vs veh, AHCTF1 / RFU, TFRC / Fold change vs veh, TFRC / RFU, ZDHHC17 / Fold change vs veh, ZDHHC17 / RFU, NOM1 / Fold change vs veh, NOM1 / RFU, ARL8B / Fold change vs veh, ARL8B / RFU, ZBTB11 / Fold change vs veh, ZBTB11 / RFU, TAMM41 / Fold change vs veh, TAMM41 / RFU, KIAA1704 /// LOC100996395 / Fold change vs veh, KIAA1704 /// LOC100996395 / RFU, ING1 / Fold change vs veh, ING1 / RFU, TRMT61B / Fold change vs veh, TRMT61B / RFU, FUBP3 / Fold change vs veh, FUBP3 / RFU, TP53 / Fold change vs veh, TP53 / RFU, TNKS2 / Fold change vs veh, TNKS2 / RFU, ZFP14 / Fold change vs veh, ZFP14 / RFU, ACTR2 / Fold change vs veh, ACTR2 / RFU, PPP3R1 / Fold change vs veh, PPP3R1 / RFU, PIK3R1 / Fold change vs veh, PIK3R1 / RFU, HNRNPA1 / Fold change vs veh, HNRNPA1 / RFU, RNF170 / Fold change vs veh, RNF170 / RFU, ZNF28 / Fold change vs veh, ZNF28 / RFU, RNGTT / Fold change vs veh, RNGTT / RFU, OGT / Fold change vs veh, OGT / RFU, BRD1 / Fold change vs veh, BRD1 / RFU, MARS / Fold change vs veh, MARS / RFU, ZNF655 / Fold change vs veh, ZNF655 / RFU, FAHD1 / Fold change vs veh, FAHD1 / RFU, BDP1 / Fold change vs veh, BDP1 / RFU, LRRCC1 / Fold change vs veh, LRRCC1 / RFU, ARID1A / Fold change vs veh, ARID1A / RFU, ZNF146 / Fold change vs veh, ZNF146 / RFU, ZNF330 / Fold change vs veh, ZNF330 / RFU, GPN3 / Fold change vs veh, GPN3 / RFU, C9orf123 / Fold change vs veh, C9orf123 / RFU, N4BP2L2 / Fold change vs veh, N4BP2L2 / RFU, ARFIP1 / Fold change vs veh, ARFIP1 / RFU, FAM179B / Fold change vs veh, FAM179B / RFU, BCL10 / Fold change vs veh, BCL10 / RFU, UHRF1BP1L / Fold change vs veh, UHRF1BP1L / RFU, BET1 / Fold change vs veh, BET1 / RFU, CNOT2 / Fold change vs veh, CNOT2 / RFU, ZNF268 / Fold change vs veh, ZNF268 / Fold change vs veh, ZNF507 / RFU, DGCR2 / Fold change vs veh, DGCR2 / RFU, WDSUB1 / Fold change vs veh, WDSUB1 / Fold change vs veh, HSP90B1 /// MIR3652 / RFU, ADSS / Fold change vs veh, ADSS / RFU, GK / Fold change vs veh, GK / RFU, ZNF148 / Fold change vs veh, ZNF148 / RFU, TAF9 / Fold change vs veh, TAF9 / RFU, SLC1A5 / Fold change vs veh, SLC1A5 / RFU, SLMO2 / Fold change vs veh, SLMO2 / RFU, ABCC4 / Fold change vs veh, ABCC4 / RFU, LOC101060439 /// RAP1B / Fold change vs veh, LOC101060439 /// RAP1B / RFU, RFX7 / Fold change vs veh, RFX7 / RFU, GTPBP10 / Fold change vs veh, GTPBP10 / RFU, CNEP1R1 / Fold change vs veh, CNEP1R1 / RFU, BIVM-ERCC5 /// ERCC5 / Fold change vs veh, BIVM-ERCC5 /// ERCC5 / RFU, ILF3 / Fold change vs veh, ILF3 / RFU 11762660_at / Fold change /veh 11762660_at / RFU VCAN (11757783_s_at) / Fold change /veh VCAN (11757783_s_at) / RFU DDX43 (11728927_at) / Fold change /veh DDX43 (11728927_at) / RFU KRT8 (11758188_x_at) / Fold change /veh KRT8 (11758188_x_at) / RFU NKD1 (11759106_at) / Fold change /veh NKD1 (11759106_at) / RFU SRD5A1 (11742802_a_at) / Fold change /veh SRD5A1 (11742802_a_at) / RFU TPSAB1 /// TPSB2 (11721975_s_at) / Fold change /veh TPSAB1 /// TPSB2 (11721975_s_at) / RFU GSTM3 (11746129_a_at) / Fold change /veh GSTM3 (11746129_a_at) / RFU IL23R (11737362_x_at) / Fold change /veh IL23R (11737362_x_at) / RFU TMEM51 (11727254_a_at) / Fold change /veh TMEM51 (11727254_a_at) / RFU PIWIL2 (11732686_x_at) / Fold change /veh PIWIL2 (11732686_x_at) / RFU ORM1 (11744905_x_at) / Fold change /veh ORM1 (11744905_x_at) / RFU CCDC152 (11743942_at) / Fold change /veh CCDC152 (11743942_at) / RFU ECM1 (11717891_a_at) / Fold change /veh ECM1 (11717891_a_at) / RFU IL23R (11748794_a_at) / Fold change /veh IL23R (11748794_a_at) / RFU TNFAIP8L3 (11732012_x_at) / Fold change /veh TNFAIP8L3 (11732012_x_at) / RFU MBOAT4 (11741988_at) / Fold change /veh MBOAT4 (11741988_at) / RFU 11764193_at / Fold change /veh 11764193_at / RFU TMEM53 (11763286_at) / Fold change /veh TMEM53 (11763286_at) / RFU MAGEB2 (11727129_at) / Fold change /veh MAGEB2 (11727129_at) / RFU TMEM200A (11744735_a_at) / Fold change /veh TMEM200A (11744735_a_at) / RFU CCDC152 (11751479_a_at) / Fold change /veh CCDC152 (11751479_a_at) / RFU FAM211A (11726209_a_at) / Fold change /veh FAM211A (11726209_a_at) / RFU RGS16 (11746705_a_at) / Fold change /veh RGS16 (11746705_a_at) / RFU VCAN (11755009_s_at) / Fold change /veh VCAN (11755009_s_at) / RFU RHOB (11743442_s_at) / Fold change /veh RHOB (11743442_s_at) / RFU RGS16 (11720943_a_at) / Fold change /veh RGS16 (11720943_a_at) / RFU RGS16 (11720944_at) / Fold change /veh RGS16 (11720944_at) / RFU, VPS4B / Fold change vs veh, VPS4B / RFU, CREB1 / Fold change vs veh, CREB1 / RFU, DNAJC13 / Fold change vs veh, DNAJC13 / RFU, GNAQ / Fold change vs veh, GNAQ / RFU, CDK5R1 / Fold change vs veh, CDK5R1 / RFU, ZRANB3 / Fold change vs veh, ZRANB3 / RFU, CUL4A / Fold change vs veh, CUL4A / RFU, CCNY / Fold change vs veh, CCNY / RFU, UFL1 / Fold change vs veh, UFL1 / RFU, COG3 / Fold change vs veh, COG3 / RFU, DIAPH2 / Fold change vs veh, DIAPH2 / RFU, SKA2 / Fold change vs veh, SKA2 / RFU, AFF3 / Fold change vs veh, AFF3 / RFU, LMF1 / Fold change vs veh, LMF1 / RFU, IPO11 / Fold change vs veh, IPO11 / RFU, DFFB / Fold change vs veh, DFFB / RFU, FOXP1 / Fold change vs veh, FOXP1 / RFU, CARD8 / Fold change vs veh, CARD8 / RFU, STRN3 / Fold change vs veh, STRN3 / RFU, ADK / Fold change vs veh, ADK / RFU, RASSF2 / Fold change vs veh, RASSF2 / RFU, WIPF1 / Fold change vs veh, WIPF1 / RFU, LARP1B / Fold change vs veh, LARP1B / RFU, RASA1 / Fold change vs veh, RASA1 / RFU, RB1 / Fold change vs veh, RB1 / RFU, PPFIA1 / Fold change vs veh, PPFIA1 / RFU, MAT2A / Fold change vs veh, MAT2A / RFU, CCT5 / Fold change vs veh, CCT5 / RFU, WDR92 / Fold change vs veh, WDR92 / RFU, CUX1 / Fold change vs veh, CUX1 / RFU, TTC7A / Fold change vs veh, TTC7A / RFU, TMEM135 / Fold change vs veh, TMEM135 / RFU, DEPTOR / Fold change vs veh, DEPTOR / RFU, CPM / Fold change vs veh, CPM / RFU, DNAJB6 / Fold change vs veh, DNAJB6 / RFU, CACNA2D3 / Fold change vs veh, CACNA2D3 / RFU, DTX4 / Fold change vs veh, DTX4 / RFU, TFCP2 / Fold change vs veh, TFCP2 / RFU, GMCL1 /// GMCL1P1 / Fold change vs veh, GMCL1 /// GMCL1P1 / RFU, AEBP2 / Fold change vs veh, AEBP2 / RFU, SNHG1 /// SNORD22 /// SNORD25 /// SNORD26 /// SNORD27 /// SNORD28 /// SNORD29 /// SNORD31 / Fold change vs veh, SNHG1 /// SNORD22 /// SNORD25 /// SNORD26 /// SNORD27 /// SNORD28 /// SNORD29 /// SNORD31 / Fold change (Aza/veh), C12orf56 (ProbeSet 11735607_a_at) / Fold change (ACY-1035/veh), C12orf56 (ProbeSet 11735607_a_at) / Fold change (Aza/veh), FGFR1OP (ProbeSet 11751329_s_at) / Fold change (ACY-1035/veh), FGFR1OP (ProbeSet 11751329_s_at) / Fold change (Aza/veh), VPS36 (ProbeSet 11739960_a_at) / Fold change (ACY-1035/veh), VPS36 (ProbeSet 11739960_a_at) / RFU SYPL1 (11715823_x_at) / Fold change /veh SYPL1 (11715823_x_at) / RFU IGFBP7 (11715501_s_at) / Fold change /veh IGFBP7 (11715501_s_at) / RFU REEP3 (11722064_at) / Fold change /veh REEP3 (11722064_at) / RFU IGLL1 (11728026_x_at) / Fold change /veh IGLL1 (11728026_x_at): dose or concentration left out as unconfirmed
Settings: MV-4-11 cells, 48 hours

Q: For Nc1ncn([C@@H]2O[C@H](CO)[C@@H](O)[C@H]2O)c(=O)n1 [azacitidine], which “Fold change /veh CD79A (11719716_a_at)” value is on record?
A: Its value is 0.94.
